# Laboratory results: patent US20230346670A1, “Prebiotic Oral Care Compositions and Methods” (Colgate-Palmolive Company, priority 2020, published 2023)
# Marks after values point to notes of the source that are not given here.
# How the values were obtained:
# Type in all cases: cell-based
# F. nucleatum = test: Multi-species biofilm composition, absolute abundance (Geq/mL); conditions: repeated rinsing
# Procedure: (§1) Biofilms are grown vertically on Calcium Deficient Hydroxyapatite (CAD-HA) disks (Hitemco Medical, Old Bethpage, USA) using the Amsterdam Active Adhesion model. Biofilms are allowed to establish during 24 h (37° C., 170 rpm) under microaerophilic conditions (6% O2, 7% CO2, 7% H2, 80% N2). After this 24 h, disks are rinsed 3 times a day for 3 minutes (RT, 250 rpm), for 3 consecutive days, by transferring the lid containing the disks to a new 24-well plate containing 2 mL/well of the appropriate substrate solution. As a negative control, PBS (pH 5.7) without substrate supplementation is used.
# (§2) N-acetyl-D-glucosamine (NADG), α-D-lactose, D-(+)-trehalose and D-(+)-raffinose are selected to determine their effects on multi-species biofilm composition. […] decrease in absolute numbers in at least four of the pathogenic bacterial species tested in the assay, in comparison to the control, the results of which are described in Table 1 below. Note, NADG decreased absolute numbers of S. sobrinus. Absolute abundances of bacterial species are shown as mean ± SD (n = 3) logarithmic values of the genome equivalents per millilitre (log(Geq/mL)).
# A. viscosus = test: as above; conditions: repeated rinsing
# Procedure: as §1, §2
# S. sanguinis = test: as above; conditions: repeated rinsing
# Procedure: as §1, §2
# V. parvula = test: as above; conditions: repeated rinsing
# Procedure: as §1, §2
# S. salivarius = test: as above; conditions: repeated rinsing
# Procedure: as §1, §2
# S. mutans = test: as above; conditions: repeated rinsing
# Procedure: as §1, §2
# [1] = test system: A. actinomycetemcomitans virulence genes; test: Virulence gene expression in multi-species biofilm (SYBR RT-qPCR)
# Procedure: as §1
# (§3) The virulence of the substrate-treated multi-species biofilms are evaluated by analyzing the relative expression of 33 genes that are recognized as being related to some form of virulence and from 4 periodontal pathogens.
# (§4) Expression of bacterial virulence genes is analyzed through SYBR RT-qPCR and normalized for bacterial housekeeping gene expression. […] These effects are illustrated in Tables 6a and 6b:
# (§5) Note, for Tables 6a and 6b, that fold changes in virulence gene expression are determined relative to the control condition through the 2^^-ΔΔCt method and are shown as the geometric mean (C.I.) (n = 3) of the 2^^-ΔΔ ^Ct values. All substrates are dissolved in PBS at a concentration of 1 M (upper part) or 1%(w/v) (lower part). Values between 0 and 1 represent relative downregulation, values >1 represent relative upregulation. […] NADG: N-acetyl-D-glucosamine; C.I.: 95% confidence interval.
# [2] = test system: P. gingivalis virulence genes; test: as above; conditions: relative to control, 2^-ΔΔCt, n = 3
# Procedure: as §1, §3, §4, §5
# [3] = test system: F. nucleatum virulence genes; test: as above; conditions: relative to control = 1, 2^-ΔΔCt, n = 3
# Procedure: as §1, §3, §4
# as §5, with “Table 6c,” for “Tables 6a and 6b, that”, “2^^-ΔΔCt” for “2^^-ΔΔ ^Ct”
# [4] = test system: multi-species biofilm (beneficial/commensal species, periodontal pathogens, cariogenic pathogens); test: Multi-species biofilm composition, relative proportions and group changes
# Procedure: Biofilms are grown vertically on Calcium Deficient Hydroxyapatite (CAD-HA) disks (Hitemco Medical, Old Bethpage, USA) using the Amsterdam Active Adhesion model. […] After this 24 h, disks are rinsed 3 times a day for 3 minutes (RT, 250 rpm), for 3 consecutive days, by transferring the lid containing the disks to a new 24-well plate containing 2 mL/well of the appropriate substrate solution. As a negative control, PBS (pH 5.7) without substrate supplementation is used. N-acetyl-D-glucosamine (NADG), α-D-lactose, D-(+)-trehalose and D-(+)-raffinose are selected to determine their effects on multi-species biofilm composition. Repeated rinsing of the biofilms with the substrates at a concentration of 1 M results in a significant decrease in absolute numbers in at least four of the pathogenic bacterial species tested in the assay, in comparison to the control, the results of which are described in Table 1 below. Note, NADG decreased absolute numbers of S. sobrinus. Absolute abundances of bacterial species are shown as mean ± SD (n = 3) logarithmic values of the genome equivalents per millilitre (log(Geq/mL)).
# [5] = lower part of Table 6a, substrate 1%(w/v), relative to control = 1
# [6] = substrate 1 M, relative to control = 1, 2^-ΔΔCt, n = 3
# [7] = Table 1a, substrate 1 M, listed as D-(+)-raffinose
# [8] = Table 3, separate experiments, concentration not given
smiles,measurement,setting,value
"OC[C@H]1O[C@H](OC[C@H]2O[C@H](O[C@]3(CO)O[C@H](CO)[C@@H](O)[C@@H]3O)[C@H](O)[C@@H](O)[C@@H]2O)[C@H](O)[C@@H](O)[C@H]1O [D-raffinose, D-(+)-raffinose]","absolute abundance of F. nucleatum (Fn), mean ± SD log (Geq/mL)",F. nucleatum; substrate 1% (w/v),9.40 ± 0.10 log (Geq/mL)
same,"absolute abundance of F. nucleatum (Fn), mean ± SD log (Geq/mL)","F. nucleatum; substrate 1 M in PBS, n = 3",6.73 ± 0.06^∗ log (Geq/mL)
same,"absolute abundance of A. viscosus (Av), mean ± SD log (Geq/mL)",A. viscosus; substrate 1% (w/v),7.77 ± 0.14 log (Geq/mL)
same,"absolute abundance of A. viscosus (Av), mean ± SD log (Geq/mL)","A. viscosus; substrate 1 M in PBS, n = 3",7.08 ± 0.59 log (Geq/mL)
same,"absolute abundance of S. sanguinis, mean ± SD log (Geq/mL)",S. sanguinis; substrate 1% (w/v),8.56 ± 0.11 log (Geq/mL)
same,"absolute abundance of S. sanguinis, mean ± SD log (Geq/mL)","S. sanguinis; substrate 1 M in PBS, n = 3",6.39 ± 0.51 log (Geq/mL)
same,"absolute abundance of V. parvula (VP), mean ± SD log (Geq/mL)",V. parvula; substrate 1% (w/v),9.83 ± 0.09 log (Geq/mL)
same,"absolute abundance of V. parvula (VP), mean ± SD log (Geq/mL)","V. parvula; substrate 1 M in PBS, n = 3",9.88 ± 0.07 log (Geq/mL)
same,"absolute abundance of S. salivarius, mean ± SD log (Geq/mL)",S. salivarius; substrate 1% (w/v),2.65 ± 0.00 log (Geq/mL)
same,"absolute abundance of S. salivarius, mean ± SD log (Geq/mL)","S. salivarius; substrate 1 M in PBS, n = 3",6.29 ± 0.21^∗ log (Geq/mL)
same,"absolute abundance of S. mutans, mean ± SD log (Geq/mL)",S. mutans; substrate 1% (w/v),7.46 ± 0.16 log (Geq/mL)
same,"absolute abundance of S. mutans, mean ± SD log (Geq/mL)","S. mutans; substrate 1 M in PBS, n = 3",8.24 ± 0.17^∗ log (Geq/mL)
same,"fold change in aae expression, geometric mean (95% C.I.)",[1]; [5],1.34 (0.38-4.68) fold
same,"fold change in apaH expression, geometric mean (95% C.I.)",[1]; [5],0.91 (0.48-1.73) fold
same,"fold change in cdtB expression, geometric mean (95% C.I.)",[1]; [5],0.73 (0.16-3.39) fold
same,"fold change in emaA expression, geometric mean (95% C.I.)",[1]; [5],0.59 (0.13-2.77) fold
same,"fold change in flp expression, geometric mean (95% C.I.)",[1]; [5],0.89 (0.40-1.99) fold
same,"fold change in ltxA expression, geometric mean (95% C.I.)",[1]; [5],0.30 (0.12-0.79) fold
same,"fold change in omp29 expression, geometric mean (95% C.I.)",[1]; [5],0.87 (0.26-2.87) fold
same,"fold change in omp100 expression, geometric mean (95% C.I.)",[1]; [5],0.31 (0.09-1.08)^∗ fold
same,"fold change in orf859 expression, geometric mean (95% C.I.)",[1]; [5],1.66 (0.86-3.20) fold
same,"fold change in pgA expression, geometric mean (95% C.I.)",[1]; [5],0.99 (0.38-2.55) fold
same,"fold change in vapA expression, geometric mean (95% C.I.)",[1]; [5],1.14 (0.40-3.20) fold
same,"fold change in vppA expression, geometric mean (95% C.I.)",[1]; [5],1.08 (0.53-2.18) fold
same,"fold change in aae expression, geometric mean (95% C.I.)",[1]; [6],0.16 (0.05-0.47)^∗ fold
same,"fold change in apaH expression, geometric mean (95% C.I.)",[1]; [6],0.11 (0.02-0.73)^∗ fold
same,"fold change in cdtB expression, geometric mean (95% C.I.)",[1]; [6],0.07 (0.02-0.25)^∗ fold
same,"fold change in emaA expression, geometric mean (95% C.I.)",[1]; [6],0.09 (0.03-0.29)^∗ fold
same,"fold change in flp expression, geometric mean (95% C.I.)",[1]; [6],0.45 (0.17-1.22) fold
same,"fold change in ltxA expression, geometric mean (95% C.I.)",[1]; [6],0.01 (0.01-0.03)^∗ fold
same,"fold change in omp29 expression, geometric mean (95% C.I.)",[1]; [6],1.37 (0.34-5.47) fold
same,"fold change in omp100 expression, geometric mean (95% C.I.)",[1]; [6],0.09 (0.02-0.43)^∗ fold
same,"fold change in orf859 expression, geometric mean (95% C.I.)",[1]; [6],0.02 (0.01-0.05)^∗ fold
same,"fold change in pgA expression, geometric mean (95% C.I.)",[1]; [6],7.26 (2.09-25.17)^∗ fold
same,"fold change in vapA expression, geometric mean (95% C.I.)",[1]; [6],0.50 (0.13-1.94) fold
same,"fold change in vppA expression, geometric mean (95% C.I.)",[1]; [6],0.05 (0.04-2.42)^∗ fold
same,"fold change in pgA expression, geometric mean (95% C.I.)","[1]; substrate 1 M, relative to control = 1, 2^-ΔΔCt, n = 3, listed as D-(+)-raffinose",7.3 fold
same,"fold change in fimA expression, geometric mean (95% C.I.)",[2]; substrate 1 % (w/v),1.47 (0.92-2.34) fold
same,"fold change in kgp expression, geometric mean (95% C.I.)",[2]; substrate 1 % (w/v),1.77 (0.74-4.21) fold
same,"fold change in partC expression, geometric mean (95% C.I.)",[2]; substrate 1 % (w/v),0.54 (0.26-1.12) fold
same,"fold change in rgpA expression, geometric mean (95% C.I.)",[2]; substrate 1 % (w/v),1.42 (1.12-1.80) fold
same,"fold change in fimA expression, geometric mean (95% C.I.)",[2]; substrate 1 M,0.03 (0.00-0.16)* fold
same,"fold change in kgp expression, geometric mean (95% C.I.)",[2]; substrate 1 M,<LOD
same,"fold change in partC expression, geometric mean (95% C.I.)",[2]; substrate 1 M,0.02 (0.00-0.12)^∗ fold
same,"fold change in rgpA expression, geometric mean (95% C.I.)",[2]; substrate 1 M,0.01 (0.00-0.10)^∗ fold
same,"fold change in ABC transp. perm. (ABC transporter permease) expression, geometric mean (95% C.I.)",[3]; substrate 1% (w/v),0.17 (0.04-0.65)^∗ fold
same,"fold change in EF-G expression, geometric mean (95% C.I.)",[3]; substrate 1% (w/v),0.12 (0.04-0.33)^∗ fold
same,"fold change in but. -coA transf. (butyrate-acetoacetate CoA-transferase) expression, geometric mean (95% C.I.)",[3]; substrate 1% (w/v),0.47 (0.06-3.98) fold
same,"fold change in hemin receptor expression, geometric mean (95% C.I.)",[3]; substrate 1% (w/v),0.12 (0.09-0.15)^∗ fold
same,"fold change in hemolysin expression, geometric mean (95% C.I.)",[3]; substrate 1% (w/v),0.51 (0.16-1.62)^∗ fold
same,"fold change in ompA expression, geometric mean (95% C.I.)",[3]; substrate 1% (w/v),0.70 (0.20-2.44) fold
same,"fold change in transposase expression, geometric mean (95% C.I.)",[3]; substrate 1% (w/v),0.78 (0.40-1.53) fold
same,"fold change in ABC transp. perm. (ABC transporter permease) expression, geometric mean (95% C.I.)",[3]; substrate 1 M,41.25 (11.65-146.10)^∗ fold
same,"fold change in EF-G expression, geometric mean (95% C.I.)",[3]; substrate 1 M,1.41 (0.70-2.83) fold
same,"fold change in but. -coA transf. (butyrate-acetoacetate CoA-transferase) expression, geometric mean (95% C.I.)",[3]; substrate 1 M,3.95 (0.89-17.60)* fold
same,"fold change in hemin receptor expression, geometric mean (95% C.I.)",[3]; substrate 1 M,18.04 (7.92-41.14)^∗ fold
same,"fold change in hemolysin expression, geometric mean (95% C.I.)",[3]; substrate 1 M,2.50 (1.07-5.83)^∗ fold
same,"fold change in ompA expression, geometric mean (95% C.I.)",[3]; substrate 1 M,1.07 (0.49-2.36) fold
same,"fold change in transposase expression, geometric mean (95% C.I.)",[3]; substrate 1 M,251.47 (75.27-840.20)^∗ fold
same,relative proportion of beneficial or commensal species in biofilm,"[4]; Table 1a, substrate 1 M",95.86 (+/- 1.63)^∗ % (Geq/mL)
same,relative proportion of cariogenic pathogens in biofilm,"[4]; Table 1a, substrate 1 M",1.85 (+/- 0.68) % (Geq/mL)
same,relative proportion of periodontal pathogens in biofilm,"[4]; Table 1a, substrate 1 M",2.29 (+/- 1.40)^∗ % (Geq/mL)
same,relative proportion of beneficial or commensal species in biofilm,[4]; [7],95.86±1.63 % (Geq/mL)
same,relative proportion of cariogenic pathogens in biofilm,[4]; [7],1.85±0.68 % (Geq/mL)
same,relative proportion of periodontal pathogens in biofilm,[4]; [7],2.29±1.40 % (Geq/mL)
same,relative proportion of beneficials/commensals in biofilm,[4]; [8],64.27 (+/- 1.84) % (Geq/mL)
same,relative proportion of cariogenic pathogens in biofilm,[4]; [8],0.27 (+/- 0.09) % (Geq/mL)
same,relative proportion of periodontal pathogens in biofilm,[4]; [8],35.46 (+/- 1.82) % (Geq/mL)
